For 17 compounds, IC50, % inhibition and inhibition results are on record in ChEMBL document CHEMBL1126886, “Synthesis of 5-methyl-5-deaza nonclassical antifolates as inhibitors of dihydrofolate reductases and as potential antipneumocystis, antitoxoplasma, and antitumor agents” (J Med Chem, 1993).

For experiment [1], the target named is T1, Dihydrofolate reductase (Pneumocystis carinii, UniProt P16184).
T1 sequence (P16184 whole entry): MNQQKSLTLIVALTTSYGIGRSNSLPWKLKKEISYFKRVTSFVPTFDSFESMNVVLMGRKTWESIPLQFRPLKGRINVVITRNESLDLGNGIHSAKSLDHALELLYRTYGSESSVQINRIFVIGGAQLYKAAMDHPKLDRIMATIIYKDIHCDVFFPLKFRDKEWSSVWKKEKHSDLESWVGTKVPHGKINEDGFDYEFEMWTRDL
Description: Inhibition of Pneumocystis carinii dihydrofolate reductase

A further experiment has as its system MCF7S. Put plainly: Inhibitory concentration required to decrease cell viability in cell growth culture against breast carcinoma cells MCF-7. The format is functional, cell-based. To be noted: Homo sapiens.
Experiment [2] has as its target T2, Dihydrofolate reductase (Lactobacillus casei, UniProt P00381). The experiment is described as follows: (§1) Inhibitory concentration against Lactobacillus casei. Further details: species or system Lacticaseibacillus casei; call rule not given here.
Experiment [3] in a line: Inhibitory concentration required to decrease cell viability in cell growth culture against melanoma SK5 MeI. The format is functional. The settings on record: Homo sapiens.
Experiment [4] has as its target T3, Bifunctional dihydrofolate reductase-thymidylate synthase (Toxoplasma gondii, UniProt Q07422).
T3 sequence (Q07422 whole entry): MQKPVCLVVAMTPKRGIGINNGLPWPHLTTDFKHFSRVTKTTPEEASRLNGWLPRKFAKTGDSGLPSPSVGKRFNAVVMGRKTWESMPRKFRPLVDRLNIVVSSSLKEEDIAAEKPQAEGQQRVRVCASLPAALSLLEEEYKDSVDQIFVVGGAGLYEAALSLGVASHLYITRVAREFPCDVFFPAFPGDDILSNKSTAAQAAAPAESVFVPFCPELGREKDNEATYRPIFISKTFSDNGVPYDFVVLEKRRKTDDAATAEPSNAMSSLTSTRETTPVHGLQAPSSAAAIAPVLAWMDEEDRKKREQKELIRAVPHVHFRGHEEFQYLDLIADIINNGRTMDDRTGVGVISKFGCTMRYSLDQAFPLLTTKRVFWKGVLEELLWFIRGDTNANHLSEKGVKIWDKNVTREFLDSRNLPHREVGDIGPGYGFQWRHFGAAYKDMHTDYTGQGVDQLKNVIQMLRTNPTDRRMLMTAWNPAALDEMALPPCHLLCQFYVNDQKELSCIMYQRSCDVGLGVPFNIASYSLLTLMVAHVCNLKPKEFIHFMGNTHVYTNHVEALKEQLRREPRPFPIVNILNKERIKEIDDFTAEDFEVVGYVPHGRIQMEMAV
The experiment is described as follows: Inhibition of Toxoplasma gondii dihydrofolate reductase.

In a further experiment the test system is CCRF-CEM. The experiment is described as follows: Inhibitory concentration required to decrease cell viability in cell growth culture against leukemia cells CCRF-CEM. To be noted: Homo sapiens. Format: functional, cell-based.
The target of experiment [5] is T4, Dihydrofolate reductase (Rattus norvegicus, UniProt Q920D2).
T4 sequence (Q920D2 whole entry): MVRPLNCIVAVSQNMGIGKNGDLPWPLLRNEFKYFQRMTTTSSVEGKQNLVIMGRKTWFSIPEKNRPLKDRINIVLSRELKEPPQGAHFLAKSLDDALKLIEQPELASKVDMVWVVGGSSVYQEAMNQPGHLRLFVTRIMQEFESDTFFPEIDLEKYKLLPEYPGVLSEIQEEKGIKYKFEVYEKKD
Description: Inhibition of rat liver dihydrofolate reductase

The test system of a further experiment is HCT-116. The experiment is described as follows: Inhibitory concentration required to decrease cell viability in cell growth culture against colon carcinoma cells HCT116. To be noted: Homo sapiens. The format is functional, cell-based.
A further experiment has as its system ACHN. Put plainly: Inhibitory concentration required to decrease cell viability in cell growth culture against kidney cells ACHN. The format is functional, cell-based. To be noted: Homo sapiens.
Experiment [6] relates to Pneumocystis carinii. The experiment is described as follows: Inhibitory concentration against Pneumocystis carinii cells in human embryonic lung fibrobalstic cell culture with MEM at 1 ug/mL. Format: functional, organism-based.
Experiment [7] deals with T4, Dihydrofolate reductase. The experiment is described as follows: Inhibitory concentration against rat liver dihydrofolate reductases.
In experiment [8] the test system is Pneumocystis carinii. Put plainly: (§2) Inhibitory concentration against Pneumocystis carinii cells in human embryonic lung fibrobalstic cell culture with MEM at 10 ug/mL. Format: functional, organism-based.
For experiment [9], the system named is Toxoplasma gondii. The experiment is described as follows: Inhibitory concentration of Toxoplasma gondii cells in human embryonic lung cells with minimum essential medium. Format: functional, organism-based.
Experiment [10] has as its target T2, Dihydrofolate reductase. Put plainly: Inhibitory concentration against Lactobacillus casei dihydrofolate reductase. Also on record: species or system Lacticaseibacillus casei.
Experiment [11] relates to Pneumocystis carinii. The experiment is described as follows: microbe, parasite or virus in culture.
Description: Inhibitory concentration against Pneumocystis carinii cells in human embryonic lung fibrobalstic cell culture with MEM at 250 ug/mL
The subject of experiment [12] is Toxoplasma gondii. Put plainly: Inhibitory concentration of Toxoplasma gondii cells in human embryonic lung cells with minimum essential medium; inactive. Format: functional, organism-based.
In experiment [13] the test system is Pneumocystis carinii. Put plainly: Inhibitory concentration against Pneumocystis carinii cells in human embryonic lung fibrobalstic cell culture with MEM at 50 ug/mL.
The subject of experiment [14] is Pneumocystis carinii. The experiment is described as §2.
The next experiment relates to Lacticaseibacillus casei. The experiment is described as §1. Format: functional, organism-based.

Bounds are passed on as bounds.

T2 sequence (P00381 whole entry): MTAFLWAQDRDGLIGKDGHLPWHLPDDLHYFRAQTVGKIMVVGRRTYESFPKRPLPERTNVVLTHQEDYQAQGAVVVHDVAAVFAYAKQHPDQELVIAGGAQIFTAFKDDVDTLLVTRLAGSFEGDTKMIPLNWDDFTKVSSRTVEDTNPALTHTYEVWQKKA

With `Cc1c(CNc2ccc(Cl)c(Cl)c2)cnc2nc(N)nc(N)c12`, the IC50 at Dihydrofolate reductase [1] turned out to be 320 nM; in the experiment with MCF7S it was 94500 nM; against Dihydrofolate reductase [2], 860 nM; in experiment [3] it was 7730 nM; in experiment [4], 28 nM; with CCRF-CEM, 100 nM. Moreover, the IC50 was 53 nM on Dihydrofolate reductase [5], 28600 nM with HCT-116 and 22900 nM with ACHN.
Consider `Cc1c(CN(C=O)c2cc(Cl)c(Cl)c(Cl)c2)cnc2nc(N)nc(N)c12`, for which the IC50 amounted to 520 nM against Dihydrofolate reductase [1], 94 nM in [4], 30 nM in the experiment with CCRF-CEM and 250 nM on Dihydrofolate reductase [5].
`COc1cc(NCc2cnc3nc(N)nc(N)c3c2C)cc(OC)c1OC.O=C(O)[C@H]1O[C@H](O)[C@H](O)[C@@H](O)[C@@H]1O` had a % inhibition in the experiment with Pneumocystis carinii [6] of 2%.
Consider `Cc1c(CN(C)c2ccc(Cl)c(Cl)c2)cnc2nc(N)nc(N)c12`, for which the IC50 is 100 nM against Dihydrofolate reductase [1]; 9600 nM with MCF7S; 960 nM against Dihydrofolate reductase [2]; 21200 nM in experiment [3]; 27 nM in experiment [4]; 10 nM in the experiment with CCRF-CEM. The IC50 was found to be 42 nM on Dihydrofolate reductase [5], 5300 nM in the experiment with HCT-116 and 70200 nM with ACHN.
On to `COc1cc(N(C=O)CC2CNc3nc(N)nc(N)c3C2C)cc(OC)c1OC` (stereo unspecified), for which the IC50 against Dihydrofolate reductase [1] and against Dihydrofolate reductase [5] was greater than 1200 nM in each case.
Regarding `Cc1c(CN(C=O)c2ccc(Cl)c(Cl)c2)cnc2nc(N)nc(N)c12`, the IC50 is 510 nM at Dihydrofolate reductase [1]; 106000 nM in the experiment on MCF7S; 140 nM on Dihydrofolate reductase [7]; 25100 nM in experiment [3]; 83 nM in experiment [4]; 210 nM in the experiment with CCRF-CEM. Moreover, the IC50 came to 16000 nM in the experiment on HCT-116 and 91400 nM in the experiment on ACHN.
Turning to `COc1cc(NCc2cnc3nc(N)nc(N)c3c2C)cc(OC)c1OC`, the % inhibition with Pneumocystis carinii [8] came to 77%; in the experiment with Pneumocystis carinii [6], 56%. Also, the IC50 was greater than 100000 nM in the experiment on MCF7S; greater than 100000 nM in experiment [3]; 130 nM in the experiment with CCRF-CEM; 2.1 nM against Dihydrofolate reductase [5]; 71700 nM in the experiment on HCT-116; 23000 nM in the experiment on Toxoplasma gondii [9]. In addition, the results for the half-maximal inhibitory concentration (IC50) in the experiment on ACHN and against Dihydrofolate reductase [10] were greater than 100000 nM and 22 nM, respectively.
Turning to `COc1cc(Cc2cnc(N)nc2N)cc(OC)c1OC.Cc1cc(NS(=O)(=O)c2ccc(N)cc2)no1` [CO-TRIMOXAZOLE], the inhibition at 250 µg/mL with Pneumocystis carinii [11] came to 84%.
Turning to `Cc1c(CNc2cc(Cl)c(Cl)c(Cl)c2)cnc2nc(N)nc(N)c12`, the IC50 was 63 nM against Dihydrofolate reductase [1]; greater than 100000 nM in the experiment with MCF7S; 12 nM in [4]; 200 nM in the experiment with CCRF-CEM; 33 nM at Dihydrofolate reductase [5].
Take `COc1cc(NCC2CNc3nc(N)nc(N)c3C2C)cc(OC)c1OC` (stereo unspecified): the IC50 at Dihydrofolate reductase [1] is greater than 3700 nM; at Dihydrofolate reductase [5], 3700 nM.
Consider `COc1cc(N(C=O)Cc2cnc3nc(N)nc(N)c3c2C)cc(OC)c1OC`, for which the IC50 at Dihydrofolate reductase [1] was 550 nM; with MCF7S, greater than 100000 nM; in [3], greater than 112000 nM; in experiment [4], 13 nM; with CCRF-CEM, 610 nM; against Dihydrofolate reductase [5], 110 nM. Moreover, the IC50 in the experiment with HCT-116 was greater than 112000 nM; in the experiment with Toxoplasma gondii [12] it was “Not Active”; in the experiment with ACHN, greater than 112000 nM.
The compound `COc1cc(Cc2cnc(N)nc2N)cc(OC)c1OC` [TRIMETHOPRIM] had an inhibition at 50 µg/mL in the experiment on Pneumocystis carinii [13] of 84%.
Compound `COc1cc(NCc2cnc3nc(N)nc(N)c3c2C)cc(OC)c1OC.O=C(O)[C@H]1OC(O)[C@H](O)[C@@H](O)[C@@H]1O` showed a % inhibition with Pneumocystis carinii [14] of 57%.
For `COc1cc(N(C)Cc2cnc3nc(N)nc(N)c3c2C)cc(OC)c1OC`, the values for the % inhibition in the experiment on Pneumocystis carinii [8] and with Pneumocystis carinii [6] were 74% and 65%, respectively. In addition, the half-maximal inhibitory concentration (IC50) was greater than 100000 nM in the experiment with MCF7S; greater than 100000 nM in [3]; 20 nM with CCRF-CEM; 7.6 nM at Dihydrofolate reductase [5]; 37900 nM in the experiment with HCT-116; 4700 nM in the experiment with Toxoplasma gondii [9]. Also, the IC50 was greater than 100000 nM in the experiment on ACHN and 200 nM against Dihydrofolate reductase [10].
As to `COc1cc(N(C=O)CC2=CNc3nc(N)nc(N)c3C2C)cc(OC)c1OC` (stereo unspecified), the IC50 against Dihydrofolate reductase [1] and against Dihydrofolate reductase [5] was greater than 2600 nM in each case.
For `COc1cc(NCc2ccc3nc(N)nc(N)c3c2C)cc(OC)c1OC` [TRIMETREXATE], half-maximal inhibition in the experiment on Lacticaseibacillus casei (IC50) was put at 27 nM.
With `Cc1c(CN(C)c2cc(Cl)c(Cl)c(Cl)c2)cnc2nc(N)nc(N)c12`, the IC50 against Dihydrofolate reductase [1] turned out to be 105 nM; with MCF7S, 18200 nM; on Dihydrofolate reductase [2], 36 nM; in experiment [4], 38.1 nM; in the experiment with CCRF-CEM, 200 nM; on Dihydrofolate reductase [5], 36.3 nM.
